# Measurements as given in US20250340511A1, “CELLULOSE SYNTHASE INHIBITORS AS A NEW CLASS OF HERBICIDE AND NON-GMO CROPS THAT ARE RESISTANT TO THE HERBICIDE” (Purdue Research Foundation, priority 2017, published 2025).
# Read-outs that look alike come from different tables or passages of the source.
# Tests used:
# horseweed = horseweed growth on media containing ES20; assay type: in vivo; details: grown on growth media containing ES20
# From the text: (§1) FIG. 8B depicts 16-day-old tomato and horseweed grown on the media in the absence and presence of Cellulosin. Bars, 1 cm.
# (§2) Because cellulose synthase is highly conserved in plants and ES20 targets the conserved catalytic domain, we hypothesize that ES20 is active in different plants, including common weeds. We tested this hypothesis by growing tomato and horseweed on growth media containing ES20.
# [1] = molecular target: T1, CesA6 central cytoplasmic domain (Arabidopsis thaliana, UniProt Q94JQ6); experiment: biochemical; assay type: binding; details: MST; SUMO-His / GFP tagged CesA6 central cytoplasmic domain purified from E. coli; read-out: dissociation constant (Kd)
# T1 construct: we expressed and purified the central cytoplasmic domain of CesA6 from E. coli; made in house; host or cells: E. coli
# T1 sequence (Q94JQ6 322-868 limits assumed): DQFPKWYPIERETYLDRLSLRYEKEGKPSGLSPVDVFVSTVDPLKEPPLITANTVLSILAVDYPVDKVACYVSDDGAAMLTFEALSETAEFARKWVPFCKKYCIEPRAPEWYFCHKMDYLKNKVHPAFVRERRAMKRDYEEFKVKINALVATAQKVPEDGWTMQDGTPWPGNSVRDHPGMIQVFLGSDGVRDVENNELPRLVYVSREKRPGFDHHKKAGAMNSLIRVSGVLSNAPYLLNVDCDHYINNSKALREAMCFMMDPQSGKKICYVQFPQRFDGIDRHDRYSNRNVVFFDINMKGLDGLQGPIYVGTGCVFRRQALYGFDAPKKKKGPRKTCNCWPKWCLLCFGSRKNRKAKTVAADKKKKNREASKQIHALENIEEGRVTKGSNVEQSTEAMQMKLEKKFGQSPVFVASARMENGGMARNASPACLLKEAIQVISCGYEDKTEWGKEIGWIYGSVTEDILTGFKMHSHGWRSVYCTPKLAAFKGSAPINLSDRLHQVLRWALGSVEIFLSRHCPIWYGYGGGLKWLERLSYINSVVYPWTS
# [2] = system: wildtype Arabidopsis seedlings; experiment: Arabidopsis seedling root growth on media supplemented with compound; assay type: in vivo, Arabidopsis thaliana; details: for activity at 1 µM: Arabidopsis thaliana
# Method: FIG. 2A. […] FIG. 2B. […] FIG. 2C. Quantification on the root length of 6 days old wildtype and mutant seedlings grown on growth media supplemented with DMSO solvent control. FIG. 2D. […] FIG. 2E. The ratio of root length from plants grown on 1 μM ES20 and those grown on DMSO for each genotype. The root length of wildtype plants grown on 1 μM ES20 was reduced to about 25% of those grown on DMSO. […] FIG. 2F.
# The root length of wildtype plants grown on 1 μM ES20 is about 20% of those that are grown on normal media.
# Individual hypocotyl epidermal cells from plants grown on ES20 media are swollen as well in compare with those grown on regular media (FIG. 1H). These growth assays indicate that ES20 inhibits cell growth and causes cells to grow in an isotropic manner instead of anisotropic manner. The composition and organization of cell wall determines plant cell shapes.
# In order to identify the cell growth pathways that are targeted by ES20, we performed a chemical genetic screen for mutants that have reduced sensitivity to this growth inhibitor. […] However, we found plants that have normal green cotyledons and leaves and elongated roots. These plants became obviously heathier and stronger than other plants after two weeks of growth on ES20 and were transferred to soil to get the M3 population. […] We generated the mapping population and used high-throughput whole genome sequencing to clone the mutant genes. […] 10 out of the 12 mutants were in CesA6 and two in CesA7. After two times of backcrosses, we consistently detected less sensitivity in these mutants to ES20 (FIGS. 2A to 2E).
# In order to identify key structure in ES20 that causes its inhibition activity, we collected three close analogs of ES20 (FIG. 7A) and tested for their effect in inhibiting plant growth.
# [3] = system: general membrane trafficking (PIN2, BRI1, HDEL-GFP, Gop1p-YFP, SYP61-CFP, VHA1-GFP); experiment: live cell imaging of fluorescence-tagged cargo and organelle markers; assay type: cell-based, Arabidopsis
# Method: Transgenic plants expressing different fluorescence-tagged proteins were examined for their cellular localization in the DMSO control treatment and after 2 hours of 5 μM ES20 treatment.
# (§3) In order to identify small molecules that could be used in studying plant membrane trafficking, chemical libraries have been screened first using tobacco pollen growth assay and then Arabidopsis live cell imaging assay (Drakakaki G. et al., Proc Natl Acad Sci USA 2011, 108, 17850-17855). In primary screen, small molecules that inhibited pollen gemination or pollen tube growth in in vitro culture condition were selected. For secondary screen, selected small molecules were tested in Arabidopsis plants expressing different fluorescence-tagged cellular markers. […] Locations of general organelle markers, such as HDEL-GFP (Endoplasmic Reticulum, ER), Gop1p-YFP (Golgi), SYP61-CFP (Trans-Golgi Network, TGN) and VHA1-GFP (TGN), are unaffected as well by ES20 treatment (FIGS. 9A and 9B).
# [4] = system: fra5 (CesA7 P557T) plants; experiment: growth response of fra5 mutant to ES20; assay type: in vivo, Arabidopsis thaliana
# From the text: (§4) FIG. 6A. Seedlings of Wildtype and fra5 grown on growth media supplemented with DMSO or ES20. FIG. 6B. Seedlings of Wildtype and any1 grown on growth media supplemented with DMSO or ES20. FIGS. 6C, 6D, 6E and 6F depict quantification on the growth of wildtype, […] and any/in the presence or absence of ES20.
# (§5) Due to the conservation of plant CesAs in their central cytoplasmic domains, we hypothesized that ES20 targeted multiple CesAs to inhibit growth. In order to test this hypothesis, we tested the response of fra5 and any/to ES20. The mutant fra5 carries a mutation of P557T in Arabidopsis thaliana CesA7. CesA7 P557 aligns to CesA6 P595. […] The mutant any/carries a mutation of D604N in Arabidopsis CesA1. D604 in CesA1 aligns to D605 in CesA6.
# [5] = system: CSC (YFP-CesA6) trafficking in root epidermal cells; experiment: YFP-CesA6 localization and FRAP after short-term ES20 treatment; assay type: cell-based, Arabidopsis
# From the text: FIGS. 5A and 5B. […] FIGS. 5C and 5D. […] FIGS. 5E and 5F. The exocytic delivery of CSC to the plasma membrane was reduced after ES20 treatment. *** indicates p<0.001 by paired t-test.
# A large knowledge gap in plant biology is that it is […] how the activities of large protein complexes, such as CSC, are integrated with their cellular transport. Golgi localized CSCs are delivered to the plasma membrane to catalyze cellulose synthesis. CSCs are also localized to some small vesicles named SmaCCs. It is not known what occurs to CSCs when the catalytic core fails to bind a functional substrate. In order to understand better on the integration of CSC catalytic activity and CSC trafficking, we took a straight approach and observed the localization of CesA6 after short-term ES20 treatment. […] Reduced CSC density at the plasma membrane and increased SmaCCs density could be the result of increased endocytosis or decreased exocytic delivery of CSC. We then performed fluorescence recovery after photobleaching experiment to test whether the exocytic delivery of CSC was affected by ES20 treatment. We bleached YFP-CesA6 fluorescence at the plasma membrane and then observed the delivery of new CSC to the plasma membrane (FIG. 5D).
# [6] = system: any1 (CesA1 D604N) plants; experiment: growth response of any1 mutant to ES20; assay type: in vivo, Arabidopsis
# From the text: as §4, §5
# tobacco pollen tube = experiment: tobacco pollen growth assay; assay type: cell-based; details: in vitro culture
# Method: as §3
# tomato = tomato growth on media containing ES20; assay type: in vivo; details: grown on growth media containing ES20
# From the text: as §1, §2
# [7] = system: cesa6 E929K mutant and transgenic plants that express CesA6 E929K in wildtype; experiment: root growth of cesa6 E929K mutant and CesA6 E929K transgenic plants; assay type: in vivo; details: Arabidopsis thaliana; 1 μM of ES20; read-out: root length relative to plants grown on normal media
# From the text: The root length of […] mutant and transgenic plants that express CesA6^E929K in wildtype is about 80% of those grown on normal media.
# The mutations we found are located in Arabidopsis thaliana CesA6 (AT5G64740), CesA4 (AT5G44030), CesA7 (AT5G17420) and CesA8 (AT4G18780) genes. Single nucleotide change in these mutants causes single amino acid change in CesA proteins and lead to reduced sensitivity to cellulosin (endosidin20 or ES20). The mutations we have discovered are listed in Table 1 and FIG. 11A showing the conserved amino acid residues of those subtypes of cellulose synthases. […] One is to create mutations in CesA6 homology gene in crop. The second is to express the mutant CesA6 in crops without knocking out endogenous CesA genes.
# [8] = system: dark-grown Arabidopsis hypocotyls; experiment: crystalline cellulose content in dark-grown seedlings; assay type: in vivo, Arabidopsis thaliana; details: concentration printed as 'M ES20'
# From the text: Swollen cells and organs in plants are often caused by direct or indirect disruption of cell wall biosynthesis or organization. For example, swollen cells and roots have been found in cesa mutants and in plants treated with inhibitors of cellulose synthesis and microtubule organization (Arioli, T., et al., Science 1998, 279, 717-720; Burn, J. E., et al., Plant Physiol. 2002, 129, 797-807). The retarded growth and cell swollen phenotypes indicate that ES20 could affect cell growth through interfering with cell wall biosynthesis or organization. To test whether ES20 affects cell wall composition, we took the straightforward approach of analyzing crystallize cellulose content in seedlings grown in the presence of different concentrations of ES20 (Updegraff, D. M. Anal. Biochem. 1969, 32, 420-424). […] The content of crystalline cellulose in seedlings grown on M ES20 was reduced to about 50% of the seedlings grown in the absence of ES20 (FIG. 1J).
smiles,measurement,setting,value
COc1ccc(C(=O)NC(=S)NNC(=O)c2ccccc2C)cc1 [ES20],growth inhibition of horseweed,horseweed,significantly inhibit the growth
same,Kd,[1],15.4 ± 5.9 µM
same,root phenotype after short-term treatment,[2]; 5 μM for 12 hours in liquid growth media,roots became swollen in the tip region
same,activity at 1 µM,"[2]; 144 h, read-out: root length relative to plants grown on DMSO",~25%
same,activity at 1 µM,[2]; read-out: root length relative to plants grown on normal media,~20%
same,hypocotyl phenotype of seedlings grown under dark condition,"[2]; dark-grown, dosage dependent",shorter and swollen hypocotyls
same,root growth arrest,"[2]; wild type plants, 5 μM",completely arrests root growth
same,root phenotype of seedlings grown on media with compound,"[2]; wildtype, dosage dependent",shorter and swollen roots
same,trafficking of cargo proteins PIN2 and BRI1,[3],did not significantly affect the trafficking
same,"locations of general organelle markers (ER, Golgi, TGN)","[3]; 2 hours of 5 μM ES20 treatment (FIGS. 9A, 9B)",unaffected
same,sensitivity of fra5 plants to ES20,[4],reduced sensitivity to ES20
same,density of plasma membrane localized CesA6,"[5]; root epidermal cells, short-term ES20 treatment",significantly reduced
same,numbers of SmaCCs that contain CesA6,[5]; short-term ES20 treatment,significantly increased
same,CSC delivery to the plasma membrane (FRAP),[5]; versus DMSO control,significantly lower than the DMSO control
same,sensitivity of any1 plants to ES20,[6],less sensitive to ES20
same,tobacco pollen tube growth,tobacco pollen tube,inhibited tobacco pollen tube growth
same,growth inhibition of tomato,tomato,significantly inhibit the growth
same,activity at 1 µM,[7],~80%
same,content of crystalline cellulose relative to seedlings grown in the absence of ES20,[8],about 50%
